Source: publication PMC4838890, “Dynamic and flexible H3K9me3 bridging via HP1β dimerization establishes a plastic state of condensed chromatin” (Nature Communications, 2016)
Where two headings read alike, the source gives them in different places.

Legend:
[1] = test system: H3K9me0 oligonucleosomes; assay: Chromatin sedimentation (clustering), H3K9me0 oligonucleosomes; type: biochemical, Xenopus laevis; conditions: 150 mM NaCl, EtBr fluorescence, n=3
Method: Figure 3 hHP1β clusters oligonuclesomal arrays in dependence of H3K9me3. (a) Oligonucleosomes (2.5 nM) were incubated with increasing concentrations of hHP1β WT or I161A at 150 mM NaCl. DNA remaining in the supernatant after centrifugation was incubated with EtBr and measured by fluorescence reading. Data were normalized to amounts in absence of added protein. Averages of three independent experiments are plotted; error bars represent s.d.; n=3. (b) Analysis of the hydrodynamic radius of oligonucleosomes (10 nM; DNA labelled with ATTO 610) in the presence of increasing concentrations of hHP1β WT or I161A by FCS at 150 mM NaCl. For details on experimental setup see Supplementary Fig. 3. Error bars represent s.d.; n=3. (c) Oligonucleosomes were reconstituted after mixing H3K9me0 and H3K9me3 octamers at different ratio. Chromatin precipitation analysis at 150 mM NaCl was carried out with hHP1β WT at saturating concentration. Data are presented as in a. (d) Precipitation behaviour of oligonucleosomes (2.5 nM) was analysed at different concentrations of NaCl with hHP1β WT at saturating concentration. […] Precipitated material was analysed by western blotting. […] Complexes were fixed with 0.05% (v/v) glutaraldehyde, spotted on mica surfaces and analysed by scanning force microscopy. […] (h) Quantification of results representatively shown in g according to the classification on the top: A, extended; B, partially condensed; C, fully condensed; D; aggregates; n>50 for each condition.
For saturating conditions, 2.7 nM oligonucleosomes were incubated with 5 μM hHP1β proteins in 100 μl sedimentation buffer (10 mM triethanolamine (pH 7.5), 150 mM NaCl, 0.1 mM EDTA) for 1 h on ice. […] For quantification of chromatin DNA, the input and output samples were incubated with 40 μl 0.5 μg ml^−1 ethidium bromide and fluorescence was measured on a Plate CHAMELEON II fluorescence plate reader (Hidex, Turku, Finland) using a 360 nm (±5 nm) excitation filter and a 612 nm (±5 nm) emission filter. For each sample the ratio of DNA concentrations after and before centrifugation (output/input) was calculated. […]

[2] = test system: mouse fibroblasts; assay: Subnuclear distribution of EGFP fusion proteins; type: cell-based; conditions: GFP fusions transiently expressed, n >100
From the text: Supplementary Figure 11: Subnuclear distribution of hHP1 β wild type and mutant proteins .
(a) The indicated proteins fused to EGFP were transiently expressed in mouse fibroblast cells.
Representative fluorescence confocal images are shown. DNA was stained with DAPI. Scale bar […]
(b) Quantification of the subnuclear distribution of the hHP1β WT and mutant proteins analyzed as in ( a) by visual inspection. EGFP signal in each transfected cell was categoriz ed into ‘dotted’ (see WT distribution in panel a) or ‘diffuse’ (see distribution of I161A in panel a). n >100 for each condition.
(1 picture or pasted object on this page, not shown here)

[3] = target: H3KC9me3 mononucleosome; assay: ITC, H3KC9me3 mononucleosome; type: binding, Xenopus laevis; conditions: for Kd: ITC, pH 7.5, 25°C, read-out: Kd (apparent dissociation constant)
From the text: Mononucleosomes were reconstituted on a 187 bp DNA fragment containing the ‘601' sequence flanked on each site by a linker of 20 bp[55]. Oligonucleosomes were reconstituted on a 12 × 200 bp × 601 template. Plasmids carrying the respective inserts were purified using a Giga kit (Qiagen, Hilden, Germany). Templates for reconstitution were released from plasmids by restriction digest with BsoBI for mononucleosomes and a mix of DdeI, BfuCI, HaeII and EcoRI for oligonucleosomes. To separate vector backbone from DNA used for chromatin assembly stepwise precipitation with polyethylene glycol (PEG) 6000/0.5 M NaCl was carried out (final PEG concentration 2–9% and 20% (w/v)). DNA pellets were washed with 70% (v/v) ethanol and dissolved in water. Double stranded, short, biotinylated DNA linkers were ligated to the DNA template before chromatin reconstitution.
ITC measurements were performed on a iTC200 calorimeter (Microcal, Malvern, UK) at 25°C in binding buffer (10 mM triethanolamine (pH 7.5), 20 or 150 mM NaCl, 0.1 mM EDTA). Reaction heats were recorded by sequences of 37 injections of 1.8 mM hHP1β, spaced at 120 s intervals, into 250 μl of 60 μM H3 peptides, nucleosomes or oligonucleosomal arrays under constant stirring at 1,000 r.p.m. (injection #1–10: 0.5 μl each; injection #11–32: 1 μl each; injection #33–37: 2 μl each). Heats of dilution, obtained by the titration of hHP1β into buffer, were substracted from raw data before analysis. Raw data were integrated, normalized and the apparent heat change (Δq) of the reaction was plotted against the molecular ratio using the Origin software. For the determination of apparent enthalpy changes (ΔHapp), the molar association constant (KA), and the stoichiometry (n) of the interaction, non-linear least-square fitting of the Δq values was performed by the Origin software using a binding model of one set of identical binding sites.
Supplementary Table 1: Summary of conditions used in the different experiments of this study.
experiment result modification template Temp. [NaCl] [MgCl2] […]

Substance | chromatin clustering/aggregation, H3K9me0 [1] | subnuclear distribution [2] | Kd ([3]; 20 mM NaCl) [µM] | Kd ([3]; 150 mM NaCl) [µM] | chromatin clustering/aggregation, H3K9me0 ([1]; listed as hHP1β) | better binding at the higher compared with the lower salt concentration ([3]; 150 mM versus 20 mM NaCl) [fold]
hHP1β I161A: CSD point mutant of hHP1β incapable of dimerization | neither the I161A mutant, nor the isolated CD or CSD had any effect on modified or unmodified chromatin | diffuse distribution | 223 ± 30 | 58 ± 17 | – | –
hHP1β WT: recombinant human heterochromatin protein 1β (GenBank NM_001127228), 185 aa | efficiently aggregated H3K9me3 but not H3K9me0 oligonucleosomes | largely localized to characteristic areas of pericentromeric heterochromatin enriched in H3K9me3 | 59 ± 8 | 22 ± 8 | No clustering of H3K9me0 chromatin | 2.7
